From ChEMBL document CHEMBL1821608, “Fragment library screening reveals remarkable similarities between the G protein-coupled receptor histamine H₄ and the ion channel serotonin 5-HT₃A” (Bioorg Med Chem Lett, 2011)
Calls of active or inactive are those of the source. No cut-off for these calls is given here.

What was measured:
Histamine H4 receptor [1] = biological target: T1, Histamine H4 receptor (Homo sapiens, UniProt Q9H3N8); assay: Displacement of [3H]histamine from human H4R receptor expressed in HEK293 cells at 10 uM after 1.5 hrs by liquid scintillation counting; assay type: cell-based
[2] = biological target: T2, 5-hydroxytryptamine receptor 3A (Homo sapiens) (UniProt P46098); assay: Displacement of [3H]granisetron from human 5-HT3AR expressed in HEK293 cells after 24 hrs by liquid scintillation counting; assay type: cell-based
T2 sequence (whole entry): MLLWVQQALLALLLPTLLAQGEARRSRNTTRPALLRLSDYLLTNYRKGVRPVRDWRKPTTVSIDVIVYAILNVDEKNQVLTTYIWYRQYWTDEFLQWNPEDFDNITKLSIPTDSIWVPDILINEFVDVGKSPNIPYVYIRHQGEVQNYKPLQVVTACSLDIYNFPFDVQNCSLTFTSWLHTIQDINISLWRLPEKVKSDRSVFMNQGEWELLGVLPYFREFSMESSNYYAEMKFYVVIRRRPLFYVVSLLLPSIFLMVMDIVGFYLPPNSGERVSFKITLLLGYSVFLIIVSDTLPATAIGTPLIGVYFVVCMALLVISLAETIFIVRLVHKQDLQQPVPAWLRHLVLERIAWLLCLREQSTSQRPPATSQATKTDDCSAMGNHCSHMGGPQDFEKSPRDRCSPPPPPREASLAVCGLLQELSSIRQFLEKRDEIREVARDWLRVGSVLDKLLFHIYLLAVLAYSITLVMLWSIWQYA

Histamine H4 receptor [3] = biological target: T1, Histamine H4 receptor; assay: Binding affinity to H4R receptor
[4] = biological target: T2, 5-hydroxytryptamine receptor 3A (Homo sapiens); assay: Inhibition of 5-HT3AR at 10 uM

Row | pKi (Histamine H4 receptor [1]) | pKi [2] | SMILES | also measured
1 | inactive | – | N=C(N)NCCCc1ccccc1 | –
2 | inactive | – | Nc1ccc2cc3ccccc3nc2c1 | –
3 | – | inactive | c1ccc(CNCCc2c[nH]cn2)cc1 | –
4 | – | inactive | CN1CCN(c2cc(-c3ccccc3)ncn2)CC1 | –

The next lines start with the compound.

Row | SMILES | pKi (Histamine H4 receptor [1]) | pKi [2] | also measured
5 | c1cncc(Cc2c[nH]cn2)c1 | – | inactive | –
6 | Nc1nc2c(c(N3CCNCC3)n1)CCC1=C2[C@@H]2CCCC[C@@H]2O1 | – | – | Ki (Histamine H4 receptor [3]): 79.4 nM
7 | Clc1ccc(C2CCNC2)cc1 (stereo not drawn) | inactive | – | –
8 | Nc1nc2c(c(N3CCNCC3)n1)CCCc1ccccc1-2 | – | – | inhibition [4]: 98%
